The text below walks through data of US20160299149A1, “ASSAYS AND METHODS FOR CELL PROLIFERATION-TARGETED TREATMENT THERAPIES” (University of Central Florida Research Foundation, Inc., priority 2015, published 2016).

Where only a bound is given, the exact number is not on record here.

Data set [1] is described as follows: Polyamine transport inhibitor assay 2: PTI blocks uptake of rescuing spermidine into DFMO-treated cells. The following applies: DFMO dosed at its IC50; Spd 1 μM; PTI not above its IC10; relative to untreated control; read-out: cell viability. It is filed as cell-based. As for the experimental part:
FIG. 6A is a diagram showing an assay wherein the uptake of rescuing dose of spermidine into DFMO-treated cells is blocked by a PTI (GW 5074).
(§1) DFMO was dosed to give 50% relative viability versus an untreated control, i.e. DFMO is dosed at its IC50 value. Exogenous spermidine (Spd, 1 μM) is added to the DFMO treated cells and provided significant rescue of these cells to >80% viability depending upon the cell line. A successful PTI was able to block the entry of the spermidine rescuing agent into DFMO treated cells and result in a cell viability near the DFMO control (i.e. 50% viability). The inventors identified the following cell viabilities: DFMO only (50%), Spd only (100%), PTI (>90%), DFMO+Spd (>80%), DFMO+Spd+PTI (50%). The PTI provides a dose dependent lowering of cell viability in the presence of DFMO and a rescuing dose of spermidine. […] Identifying cells that respond to exogenous spermidine allow this assay to be possible and the c-myc and ATP13A3 biomarkers help predict these outcomes as well as the Vmax measurements for ^3H Spd import.

Data set [2] concerns Panc-1. The experiment in a line: 3H Spd import Vmax, untreated cells. Format: cell-based, human. The text has this:
(§2) FIG. 10 is a table providing the Relative Protein expression of Cav-1, ATP13A3 and c-myc in human pancreatic cancer cell lines along with the respective Vmax values for ^3H spermidine (Spd) import and the relative affinity Km values determined for spermidine. Entries represent 100%×protein expression/beta actin expression as shown in FIG. 10 along with the Vmax value already provided. The Western blots were quantified by Image J software (NIH) and normalized by dividing by the beta-actin expression level for each cell line. Entries represent protein expression and are expressed in relative %, with the L3.6pl cell expression levels set to 100%.
(§3) FIG. 10 provides a table showing the relative protein expression of Cav-1, ATP13A3 and c-myc in human pancreatic cancer cell lines (normalized by dividing by the relative beta actin expression level) along with the respective Vmax values for ^3H Spd import and Km values. The entries represent 100%×protein expression/beta actin expression is shown in the table along with the Vmax and Km values reported earlier. As mentioned earlier, a strong correlation was found between ATP13A3 expression and the ability of DFMO-treated cells to be rescued by exogenous spermidine (FIG. 8, rightmost column).

The subject of data set [3] is SU86.86. As to the kind of experiment: 3H Spd import Vmax, untreated cells. Format: cell-based, human.
Excerpt: as §2, §3

Data set [4] concerns L3.6pl. The experiment in a line: 3H Spd import Vmax, untreated cells. It is filed as cell-based, human.
Excerpt: as §2, §3

Data set [5] concerns HPNE. As to the kind of experiment: 3H Spd import Vmax, untreated cells. Format: cell-based, human.
Excerpt: as §2, §3

In data set [6] the test system is Capan-1. As to the kind of experiment: 3H Spd import Vmax, untreated cells. It is filed as cell-based, human.
Excerpt: as §2, §3

In data set [7] the test system is AspC-1. As to the kind of experiment: 3H Spd import Vmax, untreated cells. Format: cell-based, human.
Excerpt: as §2, §3

Data set [8] has as its system BxPC-3. As to the kind of experiment: 3H Spd import Vmax, untreated cells. It is filed as cell-based, human.
Excerpt: as §2, §3

The subject of data set [9] is L3.6pl, Panc1, CHO and PanO2 cells. The experiment in a line: Cell line sensitivity to DFMO and spermidine rescue challenge. It is filed as cell-based. Particulars: cells dosed with IC50 dose of DFMO, spermidine 1 μM, read-out: viability level after rescue by exogenous spermidine.
For data set [10], the system named is Panc-1. As to the kind of experiment: Spermidine rescue of DFMO-treated cells. Format: cell-based, human. The following applies: DFMO-treated Panc-1 cells. Here is the method:
(§4) FIG. 8 provides an illustration and a table showing different cell line sensitivity to DFMO and spermidine rescue challenge. The rescue challenge experiment doses cells with the respective IC50 dose of DFMO for that cell line and measures the viability of cells with and without added spermidine (1 μM). Cell lines without added spermidine give the expected 50% viability due to the presence of DFMO. […] These are highlighted in red. Cell lines with low polyamine transport activity are not rescued to a significant extent even though a rescuing dose of spermidine is available and give viabilities near 50%.
as §1

The subject of data set [11] is SU86.86. As to the kind of experiment: Spermidine rescue of DFMO-treated cells. It is filed as cell-based, human. Particulars: DFMO-treated SU86.86 cells. As for the experimental part: as §4, §1
The subject of data set [12] is L3.6pl. As to the kind of experiment: Spermidine rescue of DFMO-treated cells. It is filed as cell-based, human. The following applies: DFMO-treated L3.6pl cells. As for the experimental part:
as §4, §1

Data set [13] relates to HPNE. The experiment in a line: Spermidine rescue of DFMO-treated cells. It is filed as cell-based, human. Here is the method: as §4, §1
The subject of data set [14] is Capan-1. The experiment in a line: Spermidine rescue of DFMO-treated cells. It is filed as cell-based, human. The following applies: DFMO-treated Capan-1 cells. Here is the method:
as §4, §1

Data set [15] concerns AspC-1. The experiment in a line: Spermidine rescue of DFMO-treated cells. It is filed as cell-based, human. The following applies: DFMO-treated AspC-1 cells. Here is the method: as §4, §1
Data set [16] concerns BxPC-3. As to the kind of experiment: Spermidine rescue of DFMO-treated cells. Format: cell-based, human. Particulars: DFMO-treated BxPC-3 cells. Here is the method:
as §4, §1

For data set [17], the system named is MALME-3M cells and MALME-3 control cells. As to the kind of experiment: Spermidine competition / percent viability with compound A. It is filed as cell-based. Particulars: 100 μM; MALME-3M and MALME-3. Here is the method: Aminoguanidine (AG) at 1 mM was determined to be non-toxic and was incubated with cells for 24 h prior to compound addition. Control represents the untreated cells. All experiments were performed in triplicate. Spermidine (Spd, 100 μM) was non-toxic to both cell lines. […] Compound A is a valid polyamine transport probe.

Broadly, the viability is a per cent measure of how many cells are alive, often set against a control.

Turning to `NCCCCNCCCN` [Spermidine, spermidine], the viability at 1 μM is 100% in data set [1] and more than 80% in data set [9]. Further, the “Vmax of ^3H Spd untreated cells” value is on record as 13 nmoles Spd/mg protein/min in the data set with Panc-1 [2]; 7.0 nmoles Spd/mg protein/min in the data set on SU86.86 [3]; 24 nmoles Spd/mg protein/min in the data set on L3.6pl [4]; 1.8 nmoles Spd/mg protein/min in the data set on HPNE [5]; 0.8 nmoles Spd/mg protein/min with Capan-1 [6]; 2.3 nmoles Spd/mg protein/min with AspC-1 [7]. Further, the “Vmax of ^3H Spd untreated cells” value in the data set with BxPC-3 [8] is reported as 9.0 nmoles Spd/mg protein/min. Further, the Spd rescue index entry with Panc-1 [10] is reported as “med”; in the data set with SU86.86 [11], “med”; with L3.6pl [12], “high”; in the data set on HPNE [13], “very low”; in the data set with Capan-1 [14] it was “Not rescuable”; in the data set with AspC-1 [15], “Not rescuable”. For the same compound, the Spd rescue index result with BxPC-3 [16] is listed as “low”. The “toxicity to both cell lines” value in data set [17] is “non-toxic”.
